Data from patent US20030232057A1, “Method and composition for inducing tolerance to an antigenic material” (priority 2000, published 2003).

What was measured:
Type in all cases: in vivo, Balb/c mice
[1] = system: BLG-stimulated lymphocytes; experiment: Prostaglandin E2 measurement (EIA) in culture media of lymphocytes from treated mice; settings: mice fed whey proteins 3 mg/g on day 0; drug daily day -3 to day 4; 5 days after tolerization; whey vs non-tolerized control mice, drugs vs whey proteins fed mice
Procedure: (§1) To start the experiment the mice were forced fed and/or injected i.p. with butyrate (which promotes COX-2 activity), ibuprofen (which inhibits COX activity) or saline (control) daily from day −3 to day 4. On day 0, the mice were fed by gastric feeding whey proteins (3 mg/g of body weight) or same volume of saline water. Gavage products were dissolved in 0.3 ml of saline water. At day 4 of each experiment, all mice were immunized by intraperitoneal injection of 0.08 mg of BLG as well as 0.08 mg of OVA in 0.04 ml sterile saline mixed with 0.16 ml 2% Al(OH)3 (Superfos Biosecotr A/S, Denmark). At day 4 or at day 26, blood samples were obtained from cardiac aortic punction under 3% Isoflurane anaesthesia (Abbott SA). Immediately after death, obtained by cervical dislocation, spleens were removed and pooled according to group of treatment in 20 ml chilled RPMI supplemented with 5% FCS. […] (^3H)Tdr (Amersham, Zurich) was added for the final 6 hours of culture and the plates were harvested and analyzed by scintillation counting (TopCount, Canberra Packard, Zurich). […] Stimulation indices were calculated as the ratio of blank-subtracted test and control values at 2.5 mg BLG/mL and 50 μg PHA/mL. PGE2 levels in the culture media, from lymphocytes cultured for 6 hrs or 12 hrs, were determined by using an enzyme immunoassay (EIA) kit (Cayman Chemical, ). […]

[2] = system: BLG-stimulated lymphocytes; experiment: Cytokine ELISA (IFN-γ) in supernatants of BLG-stimulated spleen cells from treated mice; settings: mice fed whey proteins 3 mg/g on day 0; drug daily day -3 to day 4; 5 days after tolerization; whey vs non-tolerized control mice, drugs vs whey proteins fed mice
Procedure: as §1, with “PHA/mL. […] IFN-γ” for “PHA/mL. PGE2”, “levels were measured using cytokine specific ELISA kit Endogen; which were performed according to” for “levels in”, “the manufacturers' instructions.” for “the culture media, from lymphocytes cultured for 6 hrs or 12 hrs, were determined by using an enzyme immunoassay (EIA) kit (Cayman Chemical, ).”

spleen cells = experiment: Specific proliferation assay ((3H)Tdr incorporation) of spleen cells from treated mice; settings: 4 days post-tolerization; index below 0.5 indicates tolerized mice; drugs compared with whey proteins fed mice
Procedure: as §1, with “FCS. Spleen cell solutions were homogenized through a cellular sieve (Falcon) and purified from red cells using Histopaque density centrifugation (Sigma) at 390×g for 20 min.” for “FCS.”, “PHA/mL.” for “PHA/mL. PGE2 levels in the culture media, from lymphocytes cultured for 6 hrs or 12 hrs, were determined by using an enzyme immunoassay (EIA) kit (Cayman Chemical, ).”

anti-BLG IgE = experiment: Measurement of specific anti-BLG IgE antibody in serum by ELISA; settings: 26 days post-tolerization; whey vs non-tolerized mice (p<0.05), drugs vs whey proteins fed mice
Procedure: To start the experiment the mice were forced fed and/or injected i.p. with butyrate (which promotes COX-2 activity), ibuprofen (which inhibits COX activity) or saline (control) daily from day −3 to day 4. On day 0, the mice were fed by gastric feeding whey proteins (3 mg/g of body weight) or same volume of saline water. Gavage products were dissolved in 0.3 ml of saline water. At day 4 of each experiment, all mice were immunized by intraperitoneal injection of 0.08 mg of BLG as well as 0.08 mg of OVA in 0.04 ml sterile saline mixed with 0.16 ml 2% Al(OH)3 (Superfos Biosecotr A/S, Denmark). […] (^3H)Tdr (Amersham, Zurich) was added for the final 6 hours of culture and the plates were harvested and analyzed by scintillation counting (TopCount, Canberra Packard, Zurich). […] Stimulation indices were calculated as the ratio of blank-subtracted test and control values at 2.5 mg BLG/mL and 50 μg PHA/mL. […] Optical densities were measured at 492 nm, after 15 mn of incubation at room temperature, using a Dynatech MR500 ELISA reader (Dynatech, Embrach-Embraport, Switzerland. Pooled samples from twenty non immunized female mice were used as negative controls in each plate. The cut-off dilutions were determined by calculating the dilution of the samples which gave twice the absorbance of the negative controls. Titers were expressed as the log10 of the reciprocal of the cut-off dilution.

CC(C)Cc1ccc(C(C)C(=O)O)cc1 (stereo not shown) [ibuprofen]
not observed: PGE2 production by BLG-stimulated lymphocytes in culture [1] | INF-γ production by BLG-stimulated lymphocytes in culture [2] | proliferative response index (stimulation index) (spleen cells) | humoral anti-BLG IgE titers (anti-BLG IgE)
